Assay results as given in patent US12655116B2, “Substituted isophthalic acid diamides” (Bayer Aktiengesellschaft, priority 2020, dated 2026).

Assays:
AVEFA = assay: Pre-emergence herbicidal action against AVEFA; assay type: in vivo, Avena fatua; details: 80 g/ha, pre-emergence
Procedure, shortened: (§1)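 Pre-emergence soil-surface spray of formulated compound (WP or EC; 600 to 800 l/ha; 0.2% wetting agent) over seeds sown in sandy loam. After 3 weeks under greenhouse conditions, damage is estimated visually in percent against untreated plants.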

AMARE [1] = assay: Pre-emergence herbicidal action against AMARE; assay type: in vivo, Amaranthus retroflexus
Procedure, shortened: as §1

PHBPU [2] = assay: Pre-emergence herbicidal action against PHBPU; assay type: in vivo, Pharbitis purpurea
Procedure, shortened: as §1

VIOTR [3] = assay: Pre-emergence herbicidal action against VIOTR; assay type: in vivo, Viola tricolor
Procedure, shortened: as §1

POLCO = assay: Pre-emergence herbicidal action against POLCO; assay type: in vivo, Polygonum convolvulus; details: dosage 80 g/ha
Procedure, shortened: as §1

DIGSA [4] = assay: Post-emergence herbicidal action against DIGSA; assay type: in vivo, Digitaria sanguinalis; details: 20 g/ha
Procedure, shortened: (§2)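 Greenhouse plants in sandy loam were sprayed at the one-leaf stage, 2 to 3 weeks after sowing, with WP or EC formulations as aqueous suspension or emulsion (600 to 800 l/ha water, 0.2% wetting agent). Visual damage was scored about 3 weeks later versus untreated controls, 0% = like control, 100% = dead.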

ABUTH [5] = assay: Post-emergence herbicidal action against ABUTH; assay type: in vivo, Abutilon theophrasti; details: visual assessment about 3 weeks after treatment vs untreated controls
Procedure, shortened: as §2

ECHCG [6] = assay: Post-emergence herbicidal action against ECHCG; assay type: in vivo, Echinochloa crus-galli; details: dosage 20 g/ha
Procedure, shortened: as §2

VIOTR [7] = assay: Post-emergence herbicidal action against VIOTR; assay type: in vivo, Viola tricolor; details: 20 g/ha
Procedure, shortened: as §2

MATIN [8] = assay: Pre-emergence herbicidal action against MATIN; assay type: in vivo, Matricaria inodora
Procedure, shortened: as §1

LOLRI = assay: Pre-emergence herbicidal action against LOLRI; assay type: in vivo, Lolium rigidum; details: 80 g/ha
Procedure, shortened: as §1

DIGSA [9] = assay: Pre-emergence herbicidal action against DIGSA; assay type: in vivo, Digitaria sanguinalis
Procedure, shortened: as §1

SETVI [10] = assay: Pre-emergence herbicidal action against SETVI; assay type: in vivo, Setaria viridis; details: dosage 80 g/ha
Procedure, shortened: as §1

SETVI [11] = assay: Post-emergence herbicidal action against SETVI; assay type: in vivo, Setaria viridis; details: dosage 20 g/ha
Procedure, shortened: as §2

ABUTH [12] = assay: Pre-emergence herbicidal action against ABUTH; assay type: in vivo, Abutilon theophrasti; details: for Pre-emergence action against ABUTH (herbicidal activity): 80 g/ha, scored visually after 3 weeks vs untreated controls (100% = plants have died, 0% = like control plants); for Pre-emergence action against ABUTH (herbicidal activity in percent): dosage 20 g/ha, scored visually after 3 weeks vs untreated controls, 100% = plants have died, 0% = like control plants
Procedure, shortened: as §1

ALOMY [13] = assay: Pre-emergence herbicidal action against ALOMY; assay type: in vivo, Alopecurus myosuroides; details: 80 g/ha, pre-emergence, scored visually after 3 weeks vs untreated controls (100% = plants have died, 0% = like control plants)
Procedure, shortened: as §1

MATIN [14] = assay: Post-emergence herbicidal action against MATIN; assay type: in vivo, Matricaria inodora
Procedure, shortened: as §2

AMARE [15] = assay: Post-emergence herbicidal action against AMARE; assay type: in vivo, Amaranthus retroflexus; details: 20 g/ha, visual assessment about 3 weeks after treatment, 100% = plants have died, 0% = like control plants
Procedure, shortened: as §2

ECHCG [16] = assay: Pre-emergence herbicidal action against ECHCG; assay type: in vivo, Echinochloa crus-galli; details: 80 g/ha
Procedure, shortened: as §1

VERPE = assay: Pre-emergence herbicidal action against VERPE; assay type: in vivo, Veronica persica; details: dosage 80 g/ha
Procedure, shortened: as §1

PHBPU [17] = assay: Post-emergence herbicidal action against PHBPU; assay type: in vivo, Pharbitis purpurea
Procedure, shortened: as §2

ALOMY [18] = assay: Post-emergence herbicidal action against ALOMY; assay type: in vivo, Alopecurus myosuroides; details: dosage 20 g/ha, visual assessment about 3 weeks after treatment vs untreated controls
Procedure, shortened: as §2

[19] = 20 g/ha, scored visually after 3 weeks vs untreated controls, 100% = plants have died, 0% = like control plants
[20] = 80 g/ha, scored visually after 3 weeks vs untreated controls (100% = plants have died, 0% = like control plants)

CCn1nnnc1NC(=O)c1ccc(C(F)(F)F)c(C(=O)NCC2CC2)c1Cl [Example 2-132]
80%: Pre-emergence action against POLCO in % (POLCO) | Post-emergence action against DIGSA (DIGSA [4]) | Post-emergence action against ABUTH in % (ABUTH [5]; dosage 20 g/ha) | Pre-emergence action against DIGSA in % (DIGSA [9]; dosage 20 g/ha) | Post-emergence action against SETVI in % (SETVI [11]) | Post-emergence action against MATIN in % (MATIN [14]; dosage 5 g/ha) | Post-emergence action against MATIN in % (MATIN [14]; dosage 20 g/ha)
100%: Pre-emergence action against AMARE in % (AMARE [1]; [19]) | Pre-emergence action against AMARE in % (AMARE [1]; [20]) | Pre-emergence action against VIOTR in % (VIOTR [3]; dosage 20 g/ha) | Pre-emergence action against VIOTR in % (VIOTR [3]; dosage 80 g/ha) | Pre-emergence action against MATIN in % (MATIN [8]; dosage 20 g/ha) | Pre-emergence action against MATIN in % (MATIN [8]; dosage 80 g/ha) | Pre-emergence action against DIGSA in % (DIGSA [9]; dosage 80 g/ha) | Pre-emergence action against SETVI in % (SETVI [10]) | Pre-emergence action against ABUTH (herbicidal activity) (ABUTH [12]) | Pre-emergence action against ABUTH (herbicidal activity in percent) (ABUTH [12]) | Pre-emergence action against ECHCG in % (ECHCG [16])
90%: Pre-emergence action against AVEFA in % (AVEFA) | Pre-emergence action against PHBPU in % (PHBPU [2]; dosage 80 g/ha) | Post-emergence action against ECHCG in % (ECHCG [6]) | Post-emergence action against VIOTR in % (VIOTR [7]) | Pre-emergence action against LOLRI in % (LOLRI) | Pre-emergence action against ALOMY (herbicidal activity) (ALOMY [13]) | Post-emergence action at 20 g/ha against AMARE in % (AMARE [15])

CCCNC(=O)c1c(C(F)F)ccc(C(=O)Nc2nnnn2CC)c1Cl [Example 2-154]
80%: Pre-emergence action against PHBPU in % (PHBPU [2]; dosage 20 g/ha) | Post-emergence action against ABUTH in % (ABUTH [5]; dosage 5 g/ha) | Post-emergence action against MATIN in % (MATIN [14]; dosage 20 g/ha) | Post-emergence action against ALOMY in % (ALOMY [18])
100%: Pre-emergence action against AMARE in % (AMARE [1]; [19]) | Pre-emergence action against AMARE in % (AMARE [1]; [20]) | Pre-emergence action against VERPE in % (VERPE) | Pre-emergence action against PHBPU in % (PHBPU [2]; dosage 80 g/ha) | Pre-emergence action against VIOTR in % (VIOTR [3]; dosage 80 g/ha) | Pre-emergence action against MATIN in % (MATIN [8]; dosage 20 g/ha) | Pre-emergence action against MATIN in % (MATIN [8]; dosage 80 g/ha) | Pre-emergence action against DIGSA in % (DIGSA [9]; dosage 20 g/ha) | Pre-emergence action against DIGSA in % (DIGSA [9]; dosage 80 g/ha) | Pre-emergence action against SETVI in % (SETVI [10]) | Pre-emergence action against ABUTH (herbicidal activity) (ABUTH [12]) | Pre-emergence action against ABUTH (herbicidal activity in percent) (ABUTH [12]) | Pre-emergence action against ALOMY (herbicidal activity) (ALOMY [13]) | Pre-emergence action against ECHCG in % (ECHCG [16])
90%: Pre-emergence action against POLCO in % (POLCO) | Post-emergence action against DIGSA (DIGSA [4]) | Post-emergence action against ABUTH in % (ABUTH [5]; dosage 20 g/ha) | Post-emergence action against ECHCG in % (ECHCG [6]) | Pre-emergence action against LOLRI in % (LOLRI) | Post-emergence action against PHBPU in % (PHBPU [17]; dosage 5 g/ha) | Post-emergence action against PHBPU in % (PHBPU [17]; dosage 20 g/ha) | Post-emergence action at 20 g/ha against AMARE in % (AMARE [15])

CCn1nnnc1NC(=O)c1ccc(C(F)(F)F)c(C(=O)NCC(F)F)c1Br [Example 2-212]
90%: Pre-emergence action against AVEFA in % (AVEFA) | Pre-emergence action against LOLRI in % (LOLRI) | Pre-emergence action against ECHCG in % (ECHCG [16])
100%: Pre-emergence action against AMARE in % (AMARE [1]; [20]) | Pre-emergence action against VIOTR in % (VIOTR [3]; dosage 80 g/ha) | Post-emergence action against DIGSA (DIGSA [4]) | Pre-emergence action against MATIN in % (MATIN [8]; dosage 80 g/ha) | Pre-emergence action against DIGSA in % (DIGSA [9]; dosage 80 g/ha) | Pre-emergence action against SETVI in % (SETVI [10]) | Pre-emergence action against ABUTH (herbicidal activity) (ABUTH [12]) | Pre-emergence action against ALOMY (herbicidal activity) (ALOMY [13])
80%: Pre-emergence action against PHBPU in % (PHBPU [2]; dosage 80 g/ha) | Pre-emergence action against POLCO in % (POLCO) | Post-emergence action against ECHCG in % (ECHCG [6])
